Source: patent US5270334A, “4-methoxy-5-methyl-pyran-3-ol natural products and derivatives thereof” (E. R. Squibb & Sons, Inc., priority 1992, dated 1993)
Where two headings read alike, the source gives them in different places.

Tests used:
Candida albicans [1] = test: agar diffusion assay with yeasts (zone of inhibition); format: cell-based
Protocol: (§1) In addition to M.I.C. determinations, the following methodology was used to determine the activity of the compounds of this invention against yeasts. Fresh F-4 broth cultures of the test organisms were made from frozen vials. The broth cultures were incubated at 30° C. for 18 to 24 hours at which time the average cell count was assumed to be 5×10^7 CFU per ml. They were then used to inoculate flasks containing 300 ml of F-4 agar that had been melted and cooled to 48° C. in a temperature-controlled water bath. The inoculum consisted of 1.7 ml to give an inoculum level of about 2.8×10^5 CFU per ml. 25 ml of the inoculated agar was then poured into 150×15mm sterile Petri dishes and allowed to harden.
(§2) The medium was sterilized at 121° C. for 15 minutes at 15 psi.
(§3) F-4 agar has the same composition as the broth but with the addition of 15 g agar per liter.
(§4) Cellulose discs, 6.35 mm diameter, from Schleicher & Schuell, Inc., Keene, N.H., were charged with 10 μl of a solution composed of 1 mg/ml of lanomycin or scopularin in methanol. The discs were then placed on the surface of the inoculated agar plates of the test yeast strains, and the plates incubated at 30° C. for 18 to 24 hours. At that time, the diameter of the zones of inhibition was measured.

Saccaromyces cerevisiae = test: as above; format: cell-based; conditions: read-out: Zone diameter
Protocol: as §1, §2, §3, §4

Candida tropicalis [2] = test: as above; format: cell-based
Protocol: as §1, §2, §3, §4

Candida parakrusei = test: as above; format: cell-based
Protocol: as §1, §2, §3, §4

Cryptococcus neoformis = test: as above; format: cell-based
Protocol: as §1, §2, §3, §4

Candida krusei [3] = test: as above; format: cell-based; conditions: Pichia kudriavzevii, SC2969; Candida krusei SC 2969; disc with 10 μl of 1 mg/ml; read-out: Zone diameter
Protocol: as §1, §2, §3, §4

Candida quillermondi = test: as above; format: cell-based
Protocol: as §1, §2, §3, §4

Candida glabrata [4] = test: as above; format: cell-based; conditions: Nakaseomyces glabratus, SC9342; Candida glabrata SC 9342; disc with 10 μl of 1 mg/ml; read-out: Zone diameter
Protocol: as §1, §2, §3, §4

[5] = system: cytochrome P450 enzymes, such as lanosterol demethylase; test: inhibition of cytochrome P450 enzymes (general statement); format: biochemical; conditions: in words
yeasts and fungi = test: activity against a variety of yeasts and fungi (general statement); format: cell-based; conditions: in words
Candida albicans [6] = test: MIC of scopularin, agar dilution assay (K-10 agar); format: cell-based
Protocol: (§5) The following methodology was used to determine the miniumum inhibitory concentration (hereinafter referred to as MIC) of scopularin.
(§6) The aerobic test organisms were grown in approximately 15-20ml of Antibiotic Assay Broth (Difco) by inoculating (in tubes) the broth with a loopful of the organism from a BHI (Difco) agar slant. The inoculated tubes were incubated at 37° C. for 18 to 24 hours. These cultures are assumed to contain 10^7 colony forming units (CFU) per ml and the cultures were diluted 1:100 to give a final inoculum level of 10^5 CFU; dilutions were made with Yeast Beef Broth (Difco).
(§7) Scopularin was dissolved in an appropriate diluent at a concentration of 1,000 μg/ml. Two-fold dilutions were made in Yeast Beef Broth (Difco), resulting in a range from 1000 µg/ml to 0.5 μg/ml. 1.5 ml of each dilution was placed into individual petri dishes to which 13.5ml of K-10 agar was added. The composition of K-10 agar is:
(§8) The final drug concentration in the agar ranged from 100 μg/ml to 0.05 μg/ml. Organism growth control plates containing agar only were prepared and inoculated before and after the test plates. The organisms were applied to the agar surface of each plate with a Denly Multipoint Inoculator (which delivers approximately 0.001 ml of each organism) resulting in a final inoculum of 10^4 CFU on the agar surface.
(§9) The plates were incubated at 37° C. for 18 hours and the MICs determined. The MIC is the lowest concentration of compound inhibiting growth of the organism.

Candida guilliermondii = test: MIC of scopularin, agar dilution assay (K-10 agar); format: cell-based; conditions: Meyerozyma guilliermondii
Protocol: as §5, §6, §7, §8, §9

Candida tropicalis [7] = test: MIC of scopularin, agar dilution assay (K-10 agar); format: cell-based
Protocol: as §5, §6, §7, §8, §9

Candida krusei [8] = test: MIC of scopularin, agar dilution assay (K-10 agar); format: cell-based; conditions: Pichia kudriavzevii
Protocol: as §5, §6, §7, §8, §9

Candida stellatoidea = test: MIC of scopularin, agar dilution assay (K-10 agar); format: cell-based; conditions: Candida albicans, SC2211, 18 h; Candida stellatoidea SC 2211
Protocol: as §5, §6, §7, §8, §9

[9] = system: Trichophyton mentagrophytes; test: MIC of scopularin, agar dilution assay (K-10 agar); format: cell-based; conditions: SC2637, 18 h; Trichophyton mentagrophytes SC 2637
Protocol: as §5, §6, §7, §8, §9

Aspergillus fumigatus = test: MIC of scopularin, agar dilution assay (K-10 agar); format: cell-based; conditions: SC2100, 18 h; Aspergillus fumigatus SC 2100
Protocol: as §5, §6, §7, §8, §9

Microsporum canis = test: MIC of scopularin, agar dilution assay (K-10 agar); format: cell-based; conditions: SC9237, 18 h; Microsporum canis SC 9237
Protocol: as §5, §6, §7, §8, §9

Candida glabrata [10] = test: MIC of scopularin, agar dilution assay (K-10 agar); format: cell-based; conditions: Nakaseomyces glabratus, SC11, 18 h; Candida glabrata SC 11,267
Protocol: as §5, §6, §7, §8, §9

Epidermophyton floccosum = test: MIC of scopularin, agar dilution assay (K-10 agar); format: cell-based; conditions: SC9185, 18 h; Epidermophyton floccosum SC 9185
Protocol: as §5, §6, §7, §8, §9

[11] = Saccaromyces cerevisiae SGY 379, disc with 10 μl of 1 mg/ml
[12] = Candida, SC2966, read-out: Zone diameter
[13] = SC2210, Candida quillermondi SC 2210, disc with 10 μl of 1 mg/ml, read-out: Zone diameter

## C/C=C/C=C/C=C(\C)[C@H]1OC[C@@H](C)[C@@H](OC)[C@@H]1OC(=O)CN (relative stereo) [Lanomycin]
Candida albicans [1]; SC4314, Candida albicans SC 4314, disc with 10 μl of 1 mg/ml, read-out: Zone diameter
  zone of inhibition at 1000 µg/mL: 32 mm
Saccaromyces cerevisiae; Saccaromyces cerevisiae SGY 195, disc with 10 μl of 1 mg/ml
  zone of inhibition at 1000 µg/mL: 25 mm
Saccaromyces cerevisiae; [11]
  zone of inhibition at 1000 µg/mL: 30 mm
Candida tropicalis [2]; Candida tropicalis, SC2963, read-out: Zone diameter
  zone of inhibition at 1000 µg/mL: 28 mm
Candida tropicalis [2]; Candida tropicalis, SC8159, read-out: Zone diameter
  zone of inhibition at 1000 µg/mL: 29 mm
Candida parakrusei; Candida, SC2621, read-out: Zone diameter
  zone of inhibition at 1000 µg/mL: 27 mm
Candida parakrusei; [12]
  zone of inhibition at 1000 µg/mL: 12 mm
Cryptococcus neoformis; Cryptococcus, SC5817, read-out: Zone diameter
  zone of inhibition at 1000 µg/mL: 21 mm
Candida krusei [3]
  zone of inhibition at 1000 µg/mL: 12 mm
Candida quillermondi; Candida, SC2996, read-out: Zone diameter
  zone of inhibition at 1000 µg/mL: 29 mm
Candida quillermondi; [13]
  zone of inhibition at 1000 µg/mL: 30 mm
Candida glabrata [4]
  zone of inhibition at 1000 µg/mL: 33 mm
[5]
  inhibition of cytochrome P450 enzymes, such as lanosterol demethylase: inhibit
Yeasts and fungi
  activity against a variety of yeasts and fungi: has activity

## CCC/C=C/C=C/C=C(\C)[C@H]1OC[C@@H](C)[C@@H](OC)[C@@H]1OC(=O)CN (relative stereo) [Scopularin, (2α, 3β, 4α, 5α)-Tetrahydro-4-methoxy-5-methyl-2-(1-methyl-1,3,5-nonatrienyl)-2H-pyran-3-ol, aminoacetate ester]
Candida albicans [1]; Candida albicans, SC4314, read-out: Zone diameter
  zone of inhibition at 1000 µg/mL: 37 mm
Saccaromyces cerevisiae; [11]
  zone of inhibition at 1000 µg/mL: 30 mm
Saccaromyces cerevisiae
  zone of inhibition at 1000 µg/mL: 23 mm
Candida tropicalis [2]; SC2963, Candida tropicalis SC 2963, disc with 10 μl of 1 mg/ml, read-out: Zone diameter
  zone of inhibition at 1000 µg/mL: 32 mm
Candida tropicalis [2]; SC8159, Candida tropicalis SC 8159, disc with 10 μl of 1 mg/ml, read-out: Zone diameter
  zone of inhibition at 1000 µg/mL: 30 mm
Candida parakrusei; [12]
  zone of inhibition at 1000 µg/mL: 20 mm
Candida parakrusei; SC2621, Candida parakrusei SC 2621, disc with 10 μl of 1 mg/ml, read-out: Zone diameter
  zone of inhibition at 1000 µg/mL: 31 mm
Cryptococcus neoformis; SC5817, Cryptococcus neoformis SC 5817, disc with 10 μl of 1 mg/ml, read-out: Zone diameter
  zone of inhibition at 1000 µg/mL: 25 mm
Candida krusei [3]
  zone of inhibition at 1000 µg/mL: 20 mm
Candida quillermondi; [13]
  zone of inhibition at 1000 µg/mL: 31 mm
Candida quillermondi; SC2996, Candida quillermondi SC 2996, disc with 10 μl of 1 mg/ml, read-out: Zone diameter
  zone of inhibition at 1000 µg/mL: 32 mm
Candida glabrata [4]
  zone of inhibition at 1000 µg/mL: 36 mm
[5]
  inhibition of cytochrome P450 enzymes, such as lanosterol demethylase: inhibit
Candida albicans [6]; SC10, 18 h, Candida albicans SC 10,102
  MIC: 100 µg/mL
Candida albicans [6]; SC10, 18 h, Candida albicans SC 10,580
  MIC: 50 µg/mL
Candida albicans [6]; SC10, 18 h, Candida albicans SC 10,584
  MIC: 25 µg/mL
Candida albicans [6]; SC10, 18 h, Candida albicans SC 10,585
  MIC: 50 µg/mL
Candida albicans [6]; SC11, 18 h, Candida albicans SC 11,422
  MIC: 50 µg/mL
Candida albicans [6]; SC12, 18 h, Candida albicans SC 12,734 (Bacilysin^R)
  MIC: 100 µg/mL
Candida albicans [6]; SC14, 18 h, Candida albicans SC 14,021 (Aculeacin^R)
  MIC: 50 µg/mL
Candida albicans [6]; SC5314, 18 h, Candida albicans SC 5314
  MIC: 50 µg/mL
Candida albicans [6]; SC9177, 18 h, Candida albicans SC 9177
  MIC: 50 µg/mL
Candida albicans [6]; SC9721, 18 h, Candida albicans SC 9721
  MIC: 50 µg/mL
Candida guilliermondii; SC2210, 18 h, Candida guilliermondii SC 2210
  MIC: 12.5 µg/mL
Candida guilliermondii; SC2996, 18 h, Candida guilliermondii SC 2996
  MIC: 0.4 µg/mL
Candida tropicalis [7]; SC10, 18 h, Candida tropicalis SC 10,597
  MIC: 25 µg/mL
Candida tropicalis [7]; SC2963, 18 h, Candida tropicalis SC 2963 (AmphoB^R)
  MIC: 6.3 µg/mL
Candida tropicalis [7]; SC8159, 18 h, Candida tropicalis SC 8159
  MIC: 25 µg/mL
Candida tropicalis [7]; SC9861, 18 h, Candida tropicalis SC 9861 (AmphoB^R)
  MIC: 25 µg/mL
Candida krusei [8]; SC2967, 18 h
  MIC: 0.4 µg/mL
Candida krusei [8]; SC2968, 18 h, Candida krusei SC 2968, read-out: MIC
  MIC: 1.6 µg/mL
Candida krusei [8]; SC2969, 18 h, Candida krusei SC 2969, read-out: MIC
  MIC: 1.6 µg/mL
Candida stellatoidea
  MIC: 25 µg/mL
[9]
  MIC: 0.2 µg/mL
Aspergillus fumigatus
  MIC: 50 µg/mL
Microsporum canis
  MIC: 0.4 µg/mL
Candida glabrata [10]
  MIC: 25 µg/mL
Epidermophyton floccosum
  MIC: 0.2 µg/mL
Yeasts and fungi
  activity against a variety of yeasts and fungi: has activity
